Data reported in the supplement of paper PMC11451515.

Tested on: SEM cells
Assay: cell viability relative to DMSO control; higher = less cytotoxic
Conditions: 48 h
Procedure, shortened: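 Viability is expressed as a percentage of DMSO wells within each plate, and cell-free wells serve as background. Seeding densities in the 1536-well plates (5 μl) were 500 cells/well for NOMO1 or SEM leukemia cells and 1000 cells/well for P12-Ichikawa. Each line was adapted for at least four passages in each medium. Library compounds in DMSO were pin-dosed at 47 μM to 0.79 nM (11 points, threefold), and CellTiter-Glo One luminescence was read after 48 h at 37°C.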

[1] = HPLM + 10% dialyzed FBS, 0.000781 µM
[2] = HPLM + 10% dialyzed FBS, 0.00234 µM
[3] = HPLM + 10% dialyzed FBS, 0.00702 µM
[4] = HPLM + 10% dialyzed FBS, 0.0211 µM
[5] = HPLM + 10% dialyzed FBS, 0.0632 µM
[6] = HPLM + 10% dialyzed FBS, 0.19 µM
[7] = HPLM + 10% dialyzed FBS, 0.569 µM
[8] = HPLM + 10% dialyzed FBS, 1.71 µM
[9] = HPLM + 10% dialyzed FBS, 5.12 µM
[10] = HPLM + 10% dialyzed FBS, 15.4 µM
[11] = HPLM + 10% dialyzed FBS, 46.1 µM
[12] = RPMI 5 mM glucose + 10% FBS, 0.000781 µM
[13] = RPMI 5 mM glucose + 10% FBS, 0.00234 µM
[14] = RPMI 5 mM glucose + 10% FBS, 0.00702 µM
[15] = RPMI 5 mM glucose + 10% FBS, 0.0211 µM
[16] = RPMI 5 mM glucose + 10% FBS, 0.0632 µM
[17] = RPMI 5 mM glucose + 10% FBS, 0.19 µM
[18] = RPMI 5 mM glucose + 10% FBS, 0.569 µM
[19] = RPMI 5 mM glucose + 10% FBS, 1.71 µM
[20] = RPMI 5 mM glucose + 10% FBS, 5.12 µM
[21] = RPMI 5 mM glucose + 10% FBS, 15.4 µM
[22] = RPMI 5 mM glucose + 10% FBS, 46.1 µM
[23] = RPMI 5 mM glucose + 10% dialyzed FBS, 0.000781 µM
[24] = RPMI 5 mM glucose + 10% dialyzed FBS, 0.00234 µM
[25] = RPMI 5 mM glucose + 10% dialyzed FBS, 0.00702 µM
[26] = RPMI 5 mM glucose + 10% dialyzed FBS, 0.0211 µM
[27] = RPMI 5 mM glucose + 10% dialyzed FBS, 0.0632 µM
[28] = RPMI 5 mM glucose + 10% dialyzed FBS, 0.19 µM
[29] = RPMI 5 mM glucose + 10% dialyzed FBS, 0.569 µM
[30] = RPMI 5 mM glucose + 10% dialyzed FBS, 1.71 µM
[31] = RPMI 5 mM glucose + 10% dialyzed FBS, 5.12 µM
[32] = RPMI 5 mM glucose + 10% dialyzed FBS, 15.4 µM
[33] = RPMI 5 mM glucose + 10% dialyzed FBS, 46.1 µM

Structure (SMILES) | cell viability [1] [%] | cell viability [2] [%] | cell viability [3] [%] | cell viability [4] [%] | cell viability [5] [%] | cell viability [6] [%] | cell viability [7] [%] | cell viability [8] [%] | cell viability [9] [%] | cell viability [10] [%] | cell viability [11] [%] | cell viability [12] [%] | cell viability [13] [%] | cell viability [14] [%] | cell viability [15] [%] | cell viability [16] [%] | cell viability [17] [%] | cell viability [18] [%] | cell viability [19] [%] | cell viability [20] [%] | cell viability [21] [%] | cell viability [22] [%] | cell viability [23] [%] | cell viability [24] [%] | cell viability [25] [%] | cell viability [26] [%] | cell viability [27] [%] | cell viability [28] [%] | cell viability [29] [%] | cell viability [30] [%] | cell viability [31] [%] | cell viability [32] [%] | cell viability [33] [%]
CN(C[C@@H]1COCCO1)[S+]([O-])(=O)NC2=CC3=C(C=C2)\C=C/C4=C(C=C(C=N4)C5=C[N](C)N=C5)C3=O | 85.5 | 93.9 | 92.6 | 86.4 | 79.5 | 80.8 | 69.9 | 48.8 | 29.8 | 22.4 | 24.8 | 113 | 86.6 | 110 | 109 | 85.5 | 76.3 | 53.1 | 35.2 | 22.2 | 16 | 16.4 | 78.9 | 96.4 | 91.2 | 86.8 | 85.2 | 66.3 | 60.8 | 38.5 | 24.5 | 17.3 | 18.3
C[C@@H]1CC[C@@]2(CC[C@]3(C)\C(=C/C[C@@H]4[C@@]5(C)C[C@@H](O)[C@H](O)[C@@](C)(CO)[C@@H]5CC[C@@]34C)[C@@H]2[C@H]1C)C(O)=O | 65.5 | 75.1 | 80.4 | 86.6 | 76.5 | 90.6 | 99.1 | 91.9 | 96.5 | 110 | 115 | 114 | 110 | 107 | 120 | 115 | 106 | 128 | 127 | 110 | 120 | 7.07 | 87.9 | 93.8 | 105 | 96 | 103 | 76.4 | 66.6 | 46.1 | 229 | 158 | 127
CC(C)[C@H]1C(=O)N[C@H](CO)Cc2c[nH]c3cccc(c23)N1C | 82.3 | 78.3 | 90.7 | 105 | 114 | 75.6 | 85.6 | 78.9 | 57.9 | 64.7 | 76.6 | 83 | 74 | 91.9 | 114 | 99.1 | 78.3 | 92.3 | 74.2 | 47.9 | 50.2 | 61.3 | 89.7 | 90.8 | 99.7 | 114 | 102 | 80.6 | 104 | 104 | 67.1 | 74.1 | 88.4
CC1=CC/2=C(C=C1C)N(C[C@@H](O)[C@@H](O)[C@@H](O)CO)C/3=N/C(=O)NC(=O)C3=N2 | 117 | 122 | 126 | 118 | 113 | 117 | 129 | 116 | 115 | 127 | 105 | 85.8 | 98.8 | 86.8 | 98.6 | 93.3 | 97.8 | 92.3 | 77.9 | 77.5 | 90.3 | 85.5 | 110 | 127 | 107 | 106 | 110 | 107 | 118 | 113 | 117 | 129 | 102
NC[C@H](O)c1ccc(O)c(O)c1 | 93.3 | 102 | 111 | 101 | 95.9 | 98.2 | 92 | 85.4 | 92.8 | 84.5 | 78.4 | 84 | 115 | 102 | 109 | 97.7 | 100 | 97 | 89.5 | 97.5 | 82.8 | 81.5 | 84.9 | 103 | 88.5 | 103 | 104 | 99.1 | 100 | 91.9 | 96.7 | 96.9 | 72.9
C[C@]12CC[C@H]3[C@@H](CC[C@@]45O[C@@H]4C(O)=C(C#N)C[C@]35C)[C@@H]1CC[C@@H]2O | 89.7 | 79.7 | 102 | 97.3 | 109 | 106 | 108 | 111 | 89.6 | 86.3 | 12.4 | 90.9 | 84.7 | 95.5 | 86 | 90.4 | 81.4 | 75.4 | 84.6 | 56.9 | 58.8 | 4.92 | 116 | 107 | 121 | 105 | 114 | 102 | 110 | 110 | 87.2 | 52.8 | 5.45
Cc1cc(/C=c2/sc3nc4ccccc4n3c2=O)c(C)n1-c1ccccc1 | 115 | 121 | 93.5 | 122 | 112 | 128 | 125 | 108 | 128 | 110 | 101 | 117 | 119 | 113 | 137 | 117 | 122 | 130 | 128 | 125 | 125 | 118 | 117 | 110 | 99.1 | 121 | 128 | 122 | 108 | 118 | 111 | 113 | 116
CCCC[S+](=N)([O-])CCC(N)C(=O)O (stereo unspecified) | 87.1 | 78.5 | 102 | 107 | 124 | 108 | 132 | 102 | 109 | 97.5 | 41.6 | 114 | 109 | 136 | 131 | 113 | 136 | 128 | 104 | 125 | 103 | 84.6 | 120 | 108 | 131 | 122 | 137 | 140 | 128 | 146 | 157 | 111 | 120
COc1cc(N2CCN(C)CC2)ccc1Nc1nc(N)c(C(=O)c2c(Cl)cccc2Cl)s1 | 109 | 118 | 124 | 111 | 108 | 116 | 111 | 93.7 | 88.9 | 78.4 | 24.5 | 118 | 121 | 117 | 108 | 101 | 109 | 105 | 110 | 85.7 | 68.4 | 3.88 | 112 | 105 | 122 | 116 | 116 | 114 | 110 | 106 | 122 | 85.7 | 13.3
Clc1ccc(CCC(Cn2ccnc2)Sc2c(Cl)cccc2Cl)cc1 (stereo unspecified) | 73 | 71.5 | 77.3 | 83.5 | 72.8 | 95 | 76.3 | 77.3 | 80.1 | 76.8 | 61.2 | 78.7 | 88 | 97.7 | 89.7 | 85.7 | 83.6 | 101 | 100 | 92.6 | 86.1 | 52.5 | 78.8 | 88.7 | 100 | 92.5 | 82 | 103 | 89.4 | 77.4 | 76.9 | 85.3 | 57.3
c1ccc2c(CN3CCNCC3)cccc2c1 | 102 | 102 | 115 | 108 | 100 | 126 | 108 | 107 | 102 | 98.8 | 98.8 | 85.5 | 104 | 98.6 | 107 | 97.4 | 101 | 97.1 | 103 | 92.7 | 101 | 105 | 97.7 | 106 | 126 | 124 | 128 | 122 | 106 | 131 | 95.7 | 103 | 84
COc1cccc(N(C)C(=S)Oc2ccc3c(c2)CCCC3)n1 | 75.6 | 66.4 | 85.4 | 88.1 | 91.2 | 84 | 95.4 | 82.5 | 76.5 | 82.8 | 65.6 | 75 | 83 | 86.7 | 94 | 104 | 96.2 | 93.1 | 97 | 99.3 | 97.9 | 92.8 | 96.7 | 95.1 | 90.2 | 93.3 | 91.3 | 100 | 101 | 97.5 | 87.8 | 98.5 | 84.6
N#Cc1cc(NC(=O)Nc2nnc(-c3ccncc3)s2)ccc1-c1cn[nH]c1 | – | – | – | – | – | – | – | – | – | – | – | 96 | 111 | 93 | 85.1 | 96.4 | 106 | 107 | 105 | 87.9 | 93.1 | 89.2 | 107 | 120 | 128 | 107 | 98.6 | 129 | 113 | 122 | 127 | 93 | 108
CCC[C@H](Nc1nc(-c2ccc(NC(=O)NCC)c(OC)c2)ncc1C)c1cccnc1 | 87.7 | 108 | 94 | 112 | 27.2 | 28.4 | 26.7 | 19.4 | 12.9 | 13.1 | 10.7 | 4.71 | 78.8 | 84.3 | 114 | 16.5 | 21 | 17.2 | 10.4 | 6.57 | 6.69 | 3.95 | 102 | 105 | 87.1 | 134 | 23.6 | 23.7 | 24.9 | 10.9 | 7.58 | 7.31 | 4.35
CC(C)[C@H](O)C(=O)N[C@@H](C)C(=O)N[C@@H]1C(=O)N(C)CCc2ccccc21 | 118 | 122 | 127 | 111 | 132 | 82.7 | 119 | 110 | 74 | 110 | 107 | – | – | – | – | – | – | – | – | – | – | – | 120 | 135 | 116 | 103 | 119 | 94.6 | 97.5 | 109 | 38.1 | 106 | 95.7
CC(C)(Sc1cc(C(C)(C)C)c(O)c(C(C)(C)C)c1)Sc1cc(C(C)(C)C)c(O)c(C(C)(C)C)c1 | 73.2 | 89.8 | 60 | 90.9 | 91.2 | 91.9 | 84.2 | 81.4 | 46.4 | 89.1 | 90 | 90 | 94.6 | 67 | 96.1 | 80.7 | 103 | 91.3 | 84.1 | 49.1 | 95.4 | 105 | 79 | 81.5 | 76.7 | 97.7 | 86.1 | 94.5 | 90.2 | 89.3 | 54.4 | 89.1 | 104
